Assay results taken from patent US11890291B2, “Aqueous composition with water insoluble vitamins” (Innova Agri Bio Park Private Limited, priority 2018, dated 2024).

How the values were obtained:
in vivo = conditions: Wistar, rat, po, 5 mg/kg
Description: Test substance (Vitamin D3 fortified aqueous composition) and standard drug cholecalciferol (Vitamin D3) was administered by oral route at the dose of 5 mg/kg body weight to Rats as shown in Table 8.
After oral administration of the test substance and the standard drug, 500 μL of blood sample was collected in EDTA containing tubes at different time intervals of 0, ½, 1, 2, 4, 8, 12, 24 and 48 hours.
The plasma was separated from blood samples for bioanalysis and pharmacokinetic profiling was performed using LC-MS/MS method for the quantification of vitamin D3 in Rat plasma.
The area under the plasma drug concentration-time curve (AUC) was calculated which reflects the actual body exposure to drug after administration of a dose of the drug.

[1] = Volume of distribution test; type: in vivo, Wistar rats; conditions: oral 5 mg/kg
Description: The volume of distribution (Vd) test was done to check the ability of Vitamin D3 nanogels/nanoparticles to distribute through different body fluid compartments. Apparent volume of distribution (Vd) was calculated by dividing the amount of the nanogel/nanoparticles and the standard drug administered on the plasma concentration as shown in Table 11.

Work on C=C1CC[C@H](O)C/C1=C/C=C1\CCC[C@]2(C)[C@@H]([C@H](C)CCCC(C)C)CC[C@@H]12 [Standard vitamin D3, cholecalciferol] yielded an AUC at 0 h (in vivo) of 20 ng·h/mL, an AUC at 0.5 h (in vivo) of 43.3 ng·h/mL and an AUC at 1 h (in vivo) of 41.7 ng·h/mL. The AUC at 2 h (in vivo) was 106 ng·h/mL, the AUC at 4 h (in vivo) was 289 ng·h/mL and the AUC at 8 h (in vivo) was 1180 ng·h/mL. The AUC at 12 h (in vivo) was 3010 ng·h/mL, the AUC at 24 h (in vivo) was 4060 ng·h/mL and the AUC at 48 h (in vivo) was 2910 ng·h/mL. The AUC(0-t) (in vivo) was 11700 ng·h/mL, the concentration at 0 h (in vivo) was 1.66 ± 1.66 ng/mL and the concentration at 0.5 h (in vivo) was 4.16 ± 2.17 ng/mL. For the same compound, the concentration at 1 h (in vivo) was 3.7 ± 1.98 ng/mL, the concentration at 2 h (in vivo) was 13.4 ± 4.87 ng/mL and the concentration at 4 h (in vivo) was 68.8 ± 22.5 ng/mL. It also gave a concentration at 8 h (in vivo) of 284 ± 82 ng/mL, a concentration at 12 h (in vivo) of 767 ± 92.5 ng/mL and a concentration at 24 h (in vivo) of 1040 ± 123 ng/mL. The concentration at 48 h (in vivo) was 744 ± 33.6 ng/mL, the “Volume of distribution (Vd)” value ([1]; 0 Hr) was 333.3 ± 333.3 L/kg and the “Volume of distribution (Vd)” value ([1]; 0.5 Hr) was 548.8 ± 285.8 L/kg. For the same compound, the “Volume of distribution (Vd)” value ([1]; 1 Hr) was 632.7 ± 339.6 L/kg, the “Volume of distribution (Vd)” value ([1]; 2 Hr) was 465.9 ± 129.3 L/kg and the “Volume of distribution (Vd)” value ([1]; 4 Hr) was 96.22 ± 25.47 L/kg. For the same compound, the “Volume of distribution (Vd)” value ([1]; 8 Hr) was 20.25 ± 4.58 L/kg, the “Volume of distribution (Vd)” value ([1]; 12 Hr) was 6.73 ± 0.89 L/kg and the “Volume of distribution (Vd)” value ([1]; 24 Hr) was 4.98 ± 0.67 L/kg. For the same compound, the “Volume of distribution (Vd)” value ([1]; 48 Hr) was 6.74 ± 0.31 L/kg.
